These results are taken from publication PMC8111429 (2021).

Test [1] has as its system 22AG (DNA, G4) AGGGTTAGGGTTAGGGTTAGGG
Briefly: photometric (absorption) titration. The note with it: K+ 110 mM; K-phosphate buffer, pH 7.0, 5% v/v DMSO; ligand 20 µM; per site.

Test [2] concerns F21T (DNA, G4) GGGTTAGGGTTAGGGTTAGGG
Briefly: FRET melting. The note with it: K+ 10 mM, Na+ 10 mM, Li+ 90 mM; KCl–LiCl–cacodylate, pH 7.0; LDR 5; DNA 0.2 mM [sic] (0.2 µM, ligand 1 µM).

Test [3] relates to FmycT (DNA, G4) TGAGGGTGGGTAGGGTGGGTA
Briefly: FRET melting. The conditions noted are these: K+ 10 mM, Na+ 10 mM, Li+ 90 mM; KCl–LiCl–cacodylate, pH 7.0; LDR 5; DNA 0.2 mM [sic] (0.2 µM, ligand 1 µM).

Test [4] concerns Fa2T (DNA, G4) ACAGGGTGTACAGGGTGT
Kind of test: FRET melting. The note with it: K+ 10 mM, Na+ 10 mM, Li+ 90 mM; KCl–LiCl–cacodylate, pH 7.0; LDR 5; DNA 0.2 mM [sic] (0.2 µM, ligand 1 µM).

The subject of test [5] is FkitT (DNA, G4) AGGGAGGGCGCTGGGAGGAGGG
Kind of test: FRET melting. The conditions noted are these: K+ 10 mM, Na+ 10 mM, Li+ 90 mM; KCl–LiCl–cacodylate, pH 7.0; LDR 5; DNA 0.2 mM [sic] (0.2 µM, ligand 1 µM).

Regarding `COc1c(Oc2ccc(Br)cc2)ccc2cc3[n+](cc12)CCc1cc2c(cc1-3)OCO2`, the Kb in test [1] is 5.2 ± 0.3 × 10^5 M^-1. Moreover, the entries for the “∆Tm” value in test [2] and in test [3] were 1.8 ± 0.5 °C and 2.1 ± 0.5 °C, respectively.
For `COc1c(Oc2ccc(Cl)cc2)ccc2cc3[n+](cc12)CCc1cc2c(cc1-3)OCO2`, the “∆Tm” value was 1.2 ± 0.5 °C in test [4] and 2.6 ± 0.5 °C in test [2]. For the same compound, the Kb in test [1] is 7.1 ± 0.2 × 10^5 M^-1.
As to `COc1c(Oc2ccc([N+](=O)[O-])cc2)ccc2cc3[n+](cc12)CCc1cc2c(cc1-3)OCO2`, the Kb in test [1] is given as 7.9 ± 0.3 × 10^5 M^-1. For the same compound, the “∆Tm” value was found to be 3.5 ± 0.5 °C in test [2] and 1.8 ± 0.5 °C in test [3].
For `COc1c(Oc2ccccc2)ccc2cc3[n+](cc12)CCc1cc2c(cc1-3)OCO2`, the Kb in test [1] is 8.7 ± 0.2 × 10^5 M^-1. The “∆Tm” value in test [5] turned out to be 0.1 ± 0.5 °C; in test [2], 3.2 ± 0.5 °C; in test [3], 0.4 ± 0.5 °C.
With `COc1ccc(Oc2ccc3cc4[n+](cc3c2OC)CCc2cc3c(cc2-4)OCO3)cc1`, the “∆Tm” value in test [4] was determined as 0.1 ± 0.5 °C; in test [5], 0.6 ± 0.5 °C; in test [2], 3.9 ± 0.5 °C. The Kb in test [1] is listed as 7.2 ± 0.2 × 10^5 M^-1.
